Reference: article PMC8490515, “Neuromedin B receptor stimulation of Cav3.2 T-type Ca^2+ channels in primary sensory neurons mediates peripheral pain hypersensitivity” (Theranostics, 2021)

Tests used:
[1] = tested on: heat hypersensitivity in mice; assay: Heat test, head withdrawal latency (HWL); type: in vivo, mouse; settings: intra-TG 1 nmol or 5 nmol
Experimental: For experiments that several time points are needed to be checked in 24 h, von Frey test was used, as orofacial stimulation test can be checked only once a day, [32]. For the von Frey test, the mice were placed in metal mesh boxes and allowed 30 min for habituation before examination. Mechanical hypersensitivity was assessed as described in previous studies, [33]. In brief, the threshold was assessed with a set of von Frey hairs (0.02-2.56 g, Stoelting) applied to the whisker pad in an ascending series of trials, with three separate von Frey stimulations applied per series. The threshold was determined when mice moved their heads away briskly and strongly from at least one of the three stimuli. Dixon's up-down method was used to determine the 50% probability of escape threshold. For thermal test, a heat stimulus was applied to the maxillary whisker pad skin by radiant heat (IITC Life Science). Heat sensitivity was expressed as head-withdrawal latency (HWL). The radiant heat intensity was adjusted so that basal HWL is between 10-15 s, with a cut-off of 18 s to prevent tissue damage. Chronic inflammatory pain was induced by subcutaneous injection of 20 μL of complete Freund's adjuvant (CFA) into the left side of the buccal pad. […]

[2] = tested on: sustained delayed rectifier K^+ channel (IDR); assay: Sustained delayed rectifier K+ currents (IDR) in TG neurons; type: cell-based, mouse; settings: 100 nM
Experimental: (§1) All the procedures performed in this study were carried out in accordance with NIH guidelines and were approved by the Institutional Animal Care and Use Committee of Soochow University. TG neurons were dissociated as previously described, [23]. Briefly, TGs were harvested from 8- to 10-week-old ICR mice of either sex, cut into small pieces and treated with 2 mg/mL collagenase D (Roche) for 20 min followed by 1.5 mg/mL trypsin (Sigma) at 37 °C for 15 min. Cells were dissociated via gentle trituration with fire-polished sterilized Pasteur pipettes and centrifuged through a 15% BSA gradient to remove debris and nonneuronal cells. TG neurons were resuspended in neurobasal A (Thermo Fisher) supplemented with B27 (Thermo Fisher) and transferred onto Matrigel-coated coverslips. Patch clamp recordings were conducted 2 to 6 h after plating. In shRNA-treated knockdown experiments, TG cells were replated onto coverslips 48 h after infection.
(§2) Standard whole-cell recordings were made at room temperature (22-23 °C) as described previously, [25]. Recording electrodes were pulled from borosilicate glass microcapillary tubes (Sutter Instruments) and had resistances from 3 to 5 MΩ when filled with internal solution. Recordings were obtained using a MultiClamp 700B amplifier (Axon Instruments). […]

[3] = tested on: voltage-gated Na^+ channels (Nav); assay: Whole-cell voltage-gated Na+ channel currents in TG neurons; type: cell-based, mouse; settings: 100 nM
Experimental: as §1, §2

[4] = tested on: mechanical hypersensitivity in mice; assay: von Frey test after intra-TG injection of Nmb; type: in vivo, mouse
Experimental: Mice were housed on a 12 h light/dark cycle, maintained in a humidity- and temperature-controlled room with water available ad libitum and were acclimated to the experimenter for 2 d before the first behavioural observations. Experimenters were blinded to the treatment or genotypes of the mice. As described previously, [31], an Orofacial Stimulation Test (Ugo Basile, Italy) was used for the measurement of hypersensitivity to the mechanical stimulation of the trigeminal area. Briefly, the mice initially underwent one week of adaptation trainings after a 12 h fasting food period. Each mouse was then placed in a cage in which there was an Orofacial Stimulation Test system. After the mouse was given 10 min to familiarize itself with its environment, the drinking window was opened and the testing mouse was subsequently timed for 10 min to allow drinking the milk. The contact number and total duration of time the mouse spent acquiring the reward were analyzed with the ORO software.
For experiments that several time points are needed to be checked in 24 h, von Frey test was used, as orofacial stimulation test can be checked only once a day, [32]. For the von Frey test, the mice were placed in metal mesh boxes and allowed 30 min for habituation before examination. Mechanical hypersensitivity was assessed as described in previous studies, [33]. In brief, the threshold was assessed with a set of von Frey hairs (0.02-2.56 g, Stoelting) applied to the whisker pad in an ascending series of trials, with three separate von Frey stimulations applied per series. The threshold was determined when mice moved their heads away briskly and strongly from at least one of the three stimuli. Dixon's up-down method was used to determine the 50% probability of escape threshold. For thermal test, a heat stimulus was applied to the maxillary whisker pad skin by radiant heat (IITC Life Science). Heat sensitivity was expressed as head-withdrawal latency (HWL). The radiant heat intensity was adjusted so that basal HWL is between 10-15 s, with a cut-off of 18 s to prevent tissue damage. Chronic inflammatory pain was induced by subcutaneous injection of 20 μL of complete Freund's adjuvant (CFA) into the left side of the buccal pad. The drugs (Nmb, BIM23042, Z941, or TTA-P2) were applied through a percutaneous approach by injecting the TG with a 30 G needle inserted through the infraorbital foramen, infraorbital canal and foramen rotundum. The tip of the needle terminated at the medial part of the TG, and a volume of 5 μL reagent was slowly delivered, [34]. Mice received intra-TG injection of 5'-cholesteryl-modified and 6-FAM-modified Cav3.2 siRNA (Cav3.2-siRNA, 5 μg) or a scrambled negative control siRNA (NC-siRNA) (RiboBio, Guangzhou) 2 d after the CFA injection. siRNA was mixed with polyethyleneimine (PEI, Fermentas Inc.) for 10 min before being delivered. PEI was used as a delivery vehicle to prevent degradation and enhance cell membrane penetration of siRNAs, [36].

Neuromedin B [Nmb]
head withdrawal latency effect, duration [1]: maintained at 3 h | head withdrawal latency (HWL) ([1]; at 1 h): significantly decreased the head withdrawal latency | decrease of IDR [2]: 1.9 ± 1.6% | effect on whole-cell Nav currents [3]: did not affect | acute mechanical hypersensitivity ([4]; intra-TG 0.1 nmol): no such effects | acute mechanical hypersensitivity ([4]; intra-TG 1 nmol or 5 nmol, n = 6 - 8 mice per group): significantly induced profound hypersensitivity to acute mechanical pain | mechanical hypersensitivity, 5 nmol vs 1 nmol ([4]; intra-TG 5 nmol): stronger effect than that of 1 nmol | onset of mechanical hypersensitivity ([4]; intra-TG 5 nmol): 1 h | recovery from mechanical hypersensitivity ([4]; intra-TG 5 nmol): 6 h | time at which mechanical hypersensitivity was maintained ([4]; intra-TG 5 nmol): 3 h
